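How tested: cells in 96-well plates exposed to compound for 48 hours at five concentrations. TGI: total growth inhibition.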
What was measured:
Test in all cases: DTP human tumour cell line panel, 48 h
UO-31 renal = test system: UO-31 renal
DLD-1 colon = test system: DLD-1 colon
HOP-62 NSCLC = test system: HOP-62 NSCLC
UACC-62 melanoma = test system: UACC-62 melanoma
ACHN renal = test system: ACHN renal
TK-10 renal = test system: TK-10 renal
LXFL 529 NSCLC = test system: LXFL 529 NSCLC
NCI-H460 lung = test system: NCI-H460 lung
SW-620 colon = test system: SW-620 colon
SK-MEL-2 melanoma = test system: SK-MEL-2 melanoma
COLO 205 colon = test system: COLO 205 colon
DMS 273 small cell lung = test system: DMS 273 small cell lung
RPMI-8226 leukemia = test system: RPMI-8226 leukemia
NCI-H522 lung = test system: NCI-H522 lung
SK-OV-3 ovarian = test system: SK-OV-3 ovarian
MALME-3M melanoma = test system: MALME-3M melanoma
CCRF-CEM leukemia = test system: CCRF-CEM leukemia
SNB-75 CNS = test system: SNB-75 CNS
HT29 colon = test system: HT29 colon
NCI-H23 lung = test system: NCI-H23 lung
K-562 leukemia = test system: K-562 leukemia
XF 498 CNS = test system: XF 498 CNS
HCT-15 colon = test system: HCT-15 colon
SF-295 CNS = test system: SF-295 CNS
HCT-116 colon = test system: HCT-116 colon
786-0 renal = test system: 786-0 renal
UACC-257 melanoma = test system: UACC-257 melanoma
IGROV1 ovarian = test system: IGROV1 ovarian
SK-MEL-5 melanoma = test system: SK-MEL-5 melanoma
SNB-78 CNS = test system: SNB-78 CNS
SNB-19 CNS = test system: SNB-19 CNS
M19-MEL melanoma = test system: M19-MEL melanoma
SN12C renal = test system: SN12C renal
KM20L2 colon = test system: KM20L2 colon
MOLT-4 leukemia = test system: MOLT-4 leukemia
SR leukemia = test system: SR leukemia
KM12 colon = test system: KM12 colon
OVCAR-8 ovarian = test system: OVCAR-8 ovarian
OVCAR-3 ovarian = test system: OVCAR-3 ovarian
HOP-18 NSCLC = test system: HOP-18 NSCLC
U251 CNS = test system: U251 CNS
RXF-631 renal = test system: RXF-631 renal
A549 NSCLC = test system: A549 NSCLC
OVCAR-5 ovarian = test system: OVCAR-5 ovarian
HOP-92 NSCLC = test system: HOP-92 NSCLC
NCI-H226 lung = test system: NCI-H226 lung
HL-60(TB) leukemia = test system: HL-60(TB) leukemia
RXF 393 renal = test system: RXF 393 renal
SF-268 CNS = test system: SF-268 CNS
EKVX NSCLC = test system: EKVX NSCLC
LOX IMVI melanoma = test system: LOX IMVI melanoma
SK-MEL-28 melanoma = test system: SK-MEL-28 melanoma
DMS 114 small cell lung = test system: DMS 114 small cell lung
SF-539 CNS = test system: SF-539 CNS
M14 melanoma = test system: M14 melanoma
HCC-2998 colon = test system: HCC-2998 colon
CAKI-1 renal = test system: CAKI-1 renal
A498 renal = test system: A498 renal
OVCAR-4 ovarian = test system: OVCAR-4 ovarian

COc1cc2c3c(c1OC)-c1ccccc1C(C(O)c1ccccc1)C3N(C)CC2 (stereo unspecified)
TGI (UO-31 renal): 68.3 µM
TGI (DLD-1 colon): 66.1 µM
TGI (HOP-62 NSCLC): 71.6 µM
TGI (UACC-62 melanoma): > 100 µM
TGI (ACHN renal): > 100 µM
TGI (TK-10 renal): > 100 µM
TGI (LXFL 529 NSCLC): > 100 µM
TGI (NCI-H460 lung): 90 µM
TGI (SW-620 colon): > 100 µM
TGI (SK-MEL-2 melanoma): 88.2 µM
TGI (COLO 205 colon): 29.6 µM
TGI (DMS 273 small cell lung): 64.6 µM
TGI (RPMI-8226 leukemia): 82.7 µM
TGI (NCI-H522 lung): 35.9 µM
TGI (SK-OV-3 ovarian): > 100 µM
TGI (MALME-3M melanoma): 35 µM
TGI (CCRF-CEM leukemia): > 100 µM
TGI (SNB-75 CNS): > 100 µM
TGI (HT29 colon): 72 µM
TGI (NCI-H23 lung): > 100 µM
TGI (K-562 leukemia): 76.4 µM
TGI (XF 498 CNS): 52.3 µM
TGI (HCT-15 colon): 76.9 µM
TGI (SF-295 CNS): > 100 µM
TGI (HCT-116 colon): 39.2 µM
TGI (786-0 renal): > 100 µM
TGI (UACC-257 melanoma): 40.6 µM
TGI (IGROV1 ovarian): 80.6 µM
TGI (SK-MEL-5 melanoma): 28 µM
TGI (SNB-78 CNS): > 100 µM
TGI (SNB-19 CNS): > 100 µM
TGI (M19-MEL melanoma): > 100 µM
TGI (SN12C renal): 99.2 µM
TGI (KM20L2 colon): 48.8 µM
TGI (MOLT-4 leukemia): 89 µM
TGI (SR leukemia): 47 µM
TGI (KM12 colon): 72.4 µM
TGI (OVCAR-8 ovarian): > 100 µM
TGI (OVCAR-3 ovarian): > 100 µM
TGI (HOP-18 NSCLC): > 100 µM
TGI (U251 CNS): > 100 µM
TGI (RXF-631 renal): 65.8 µM
TGI (A549 NSCLC): > 100 µM
TGI (OVCAR-5 ovarian): > 100 µM
TGI (HOP-92 NSCLC): > 100 µM
TGI (NCI-H226 lung): 72.8 µM
TGI (HL-60(TB) leukemia): 43.6 µM
TGI (RXF 393 renal): 29.1 µM
TGI (SF-268 CNS): > 100 µM
TGI (EKVX NSCLC): > 100 µM
TGI (LOX IMVI melanoma): > 100 µM
TGI (SK-MEL-28 melanoma): 41.6 µM
TGI (DMS 114 small cell lung): 43.9 µM
TGI (SF-539 CNS): 42.3 µM
TGI (M14 melanoma): 35.6 µM
TGI (HCC-2998 colon): 33.7 µM

Cc1cc(NS(=O)(=O)c2ccc(NC(=O)c3ccc(Cl)c4c(Nc5ccc(S(N)(=O)=O)cc5)c5ccccc5nc34)cc2)no1
TGI (UO-31 renal): 69.8 µM
TGI (DLD-1 colon): 52.4 µM
TGI (HOP-62 NSCLC): 41.1 µM
TGI (UACC-62 melanoma): 25.2 µM
TGI (ACHN renal): 73.8 µM
TGI (CAKI-1 renal): 40.5 µM
TGI (TK-10 renal): 86.2 µM
TGI (LXFL 529 NSCLC): 31.4 µM
TGI (NCI-H460 lung): 83.1 µM
TGI (SW-620 colon): 38.9 µM
TGI (COLO 205 colon): 34.3 µM
TGI (DMS 273 small cell lung): 47.4 µM
TGI (NCI-H522 lung): 23.7 µM
TGI (SK-OV-3 ovarian): 59.2 µM
TGI (MALME-3M melanoma): 29.3 µM
TGI (SNB-75 CNS): 42.6 µM
TGI (HT29 colon): 44.7 µM
TGI (NCI-H23 lung): 49.3 µM
TGI (K-562 leukemia): > 100 µM
TGI (XF 498 CNS): 36 µM
TGI (HCT-15 colon): > 100 µM
TGI (SF-295 CNS): 70 µM
TGI (HCT-116 colon): 30.8 µM
TGI (A498 renal): 49.9 µM
TGI (786-0 renal): 34.8 µM
TGI (UACC-257 melanoma): 50.9 µM
TGI (IGROV1 ovarian): 44.2 µM
TGI (SK-MEL-5 melanoma): 33.9 µM
TGI (SNB-78 CNS): > 100 µM
TGI (SNB-19 CNS): 30.2 µM
TGI (M19-MEL melanoma): 38.4 µM
TGI (SN12C renal): 58.6 µM
TGI (KM20L2 colon): 56.6 µM
TGI (MOLT-4 leukemia): 56.6 µM
TGI (SR leukemia): 56.9 µM
TGI (KM12 colon): 37.8 µM
TGI (OVCAR-8 ovarian): 36.6 µM
TGI (OVCAR-3 ovarian): 37.7 µM
TGI (HOP-18 NSCLC): 83 µM
TGI (U251 CNS): 27 µM
TGI (RXF-631 renal): 50.2 µM
TGI (A549 NSCLC): > 100 µM
TGI (OVCAR-5 ovarian): 56.7 µM
TGI (HOP-92 NSCLC): 39.2 µM
TGI (OVCAR-4 ovarian): 47 µM
TGI (NCI-H226 lung): 46 µM
TGI (HL-60(TB) leukemia): 65.6 µM
TGI (RXF 393 renal): 31.3 µM
TGI (SF-268 CNS): 40.8 µM
TGI (EKVX NSCLC): 89.1 µM
TGI (LOX IMVI melanoma): 29.7 µM
TGI (SK-MEL-28 melanoma): 42.3 µM
TGI (DMS 114 small cell lung): 39.7 µM
TGI (SF-539 CNS): 39.2 µM
TGI (M14 melanoma): 65.7 µM
TGI (HCC-2998 colon): 33.2 µM

O=C1CCC[C@]2(CCCC(=O)N2)C1
TGI (UO-31 renal): > 100 µM
TGI (DLD-1 colon): > 100 µM
TGI (HOP-62 NSCLC): > 100 µM
TGI (UACC-62 melanoma): > 100 µM
TGI (ACHN renal): > 100 µM
TGI (CAKI-1 renal): > 100 µM
TGI (TK-10 renal): > 100 µM
TGI (LXFL 529 NSCLC): > 100 µM
TGI (NCI-H460 lung): > 100 µM
TGI (SW-620 colon): > 100 µM
TGI (SK-MEL-2 melanoma): > 100 µM
TGI (COLO 205 colon): > 100 µM
TGI (DMS 273 small cell lung): > 100 µM
TGI (RPMI-8226 leukemia): > 100 µM
TGI (NCI-H522 lung): > 100 µM
TGI (SK-OV-3 ovarian): > 100 µM
TGI (MALME-3M melanoma): > 100 µM
TGI (CCRF-CEM leukemia): > 100 µM
TGI (SNB-75 CNS): > 100 µM
TGI (HT29 colon): > 100 µM
TGI (NCI-H23 lung): > 100 µM
TGI (K-562 leukemia): > 100 µM
TGI (XF 498 CNS): > 100 µM
TGI (HCT-15 colon): > 100 µM
TGI (SF-295 CNS): > 100 µM
TGI (HCT-116 colon): > 100 µM
TGI (A498 renal): > 100 µM
TGI (786-0 renal): > 100 µM
TGI (UACC-257 melanoma): > 100 µM
TGI (IGROV1 ovarian): > 100 µM
TGI (SK-MEL-5 melanoma): > 100 µM
TGI (SNB-78 CNS): > 100 µM
TGI (SNB-19 CNS): > 100 µM
TGI (M19-MEL melanoma): > 100 µM
TGI (SN12C renal): > 100 µM
TGI (KM20L2 colon): > 100 µM
TGI (MOLT-4 leukemia): > 100 µM
TGI (SR leukemia): > 100 µM
TGI (KM12 colon): > 100 µM
TGI (OVCAR-8 ovarian): > 100 µM
TGI (OVCAR-3 ovarian): > 100 µM
TGI (HOP-18 NSCLC): > 100 µM
TGI (U251 CNS): > 100 µM
TGI (RXF-631 renal): > 100 µM
TGI (A549 NSCLC): > 100 µM
TGI (OVCAR-5 ovarian): > 100 µM
TGI (HOP-92 NSCLC): > 100 µM
TGI (OVCAR-4 ovarian): > 100 µM
TGI (NCI-H226 lung): > 100 µM
TGI (HL-60(TB) leukemia): > 100 µM
TGI (RXF 393 renal): > 100 µM
TGI (SF-268 CNS): > 100 µM
TGI (EKVX NSCLC): > 100 µM
TGI (LOX IMVI melanoma): > 100 µM
TGI (SK-MEL-28 melanoma): > 100 µM
TGI (DMS 114 small cell lung): > 100 µM
TGI (SF-539 CNS): > 100 µM
TGI (M14 melanoma): > 100 µM
TGI (HCC-2998 colon): > 100 µM

Source: PubChem BioAssay (NCI)
